Blank lines part the entries; values can stand above or below the sequence they belong to. Where no end group is shown, it is not given here.
What was measured:
TBL1/β-catenin complex = target: T1, TBL1/β-catenin complex (Homo sapiens, UniProt O60907); assay: Sandwich ELISA peptide library screening in colon cancer cell lysates; format: binding; conditions: screening of individual peptides, FIG. 7
T1 construct: TBL1/β-catenin complex from lysates of a colon cancer cell with active Wnt signaling was captured; endogenous in cells; host or cells: HCT15 and SW480 colon cancer cell lysates, cells pre-treated with 20 mM LiCl
T1 sequence (O60907 1-577): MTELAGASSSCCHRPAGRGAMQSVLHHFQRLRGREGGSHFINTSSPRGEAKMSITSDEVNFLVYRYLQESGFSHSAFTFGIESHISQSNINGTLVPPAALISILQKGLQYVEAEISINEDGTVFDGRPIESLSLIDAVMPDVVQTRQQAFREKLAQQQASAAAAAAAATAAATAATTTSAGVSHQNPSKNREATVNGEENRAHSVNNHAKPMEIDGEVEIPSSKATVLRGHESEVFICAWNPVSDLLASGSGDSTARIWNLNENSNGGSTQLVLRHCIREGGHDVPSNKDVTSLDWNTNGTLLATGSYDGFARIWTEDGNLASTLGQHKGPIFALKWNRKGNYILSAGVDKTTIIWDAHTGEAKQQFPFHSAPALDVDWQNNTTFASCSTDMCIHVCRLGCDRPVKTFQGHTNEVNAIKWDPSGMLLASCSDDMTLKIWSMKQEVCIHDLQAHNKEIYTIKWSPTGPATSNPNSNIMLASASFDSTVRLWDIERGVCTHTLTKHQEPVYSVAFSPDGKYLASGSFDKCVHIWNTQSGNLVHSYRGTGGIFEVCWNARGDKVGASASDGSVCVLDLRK
Method: To identify the peptide or peptides able to disrupt the interaction between TBL1 and (3-catenin, the sandwich ELISA approach was used (see FIG. 4). In this assay TBL1/β-catenin complex from lysates of a colon cancer cell with active Wnt signaling was captured in a Protein G ELISA 96-well plate coated with antibody that recognizes TBL1. To ensure activation of Wnt signaling, the cells were pre-treated with 20 mM LiCl for 12 h a 37° C. The bound complex was then exposed to peptides from the library either as single peptides or in a combination of 2 or 3 peptides to ensure coverage of the potential binding site between TBL1 and β-catenin. After washing away unbound proteins, the plates were incubated with β-catenin antibodies labeled with ALEXA FLUOR® 488 dye, and the level of β-catenin associated to TBL1 was quantified by a plate reader that detects the ALEXA FLUOR® 488 fluorescence probe. As a form of TBL1/β-catenin complex, we used colon cancer cell lines HCT15 and SW480. All the experiments were conducted in triplicate to ensure statistical significance. To reduce variability the assays were performed by using the EPMOTION® liquid handler. We designed a program that controls the peptide seeding into the ELISA plate wells: 1, 2 or 3 peptides per well, with overlap of one peptide in each well.
All wells in the screening were loaded with 1 mg/ml of lysate and incubated at 37° C. for 1 hour. After a wash, peptide combinations were added at a concentration of […] for each peptide and incubated at 37° C. for 2 hours followed by β-catenin detection as described. […] The SW480 lysate standard curve was generated by varying the concentration of lysate without any peptides present.
Additional screening was performed with the peptide library using the assay described in Example 2 with the colon cancer cell lines HCT15 and SW480.
Combinations of three peptides were subsequently assayed at varying concentrations to show a dose response in the disruption of the interaction between TBL1 and β-catenin.
To identify the peptide or peptides able to disrupt the interaction between TBL1 and (3-catenin, we tested the Sandwich ELISA approach. In this assay TBL1/β-catenin complex from lysates of colon cancer cell with active Wnt signaling, is captured in Protein G ELISA 96 well plate coated with antibody that recognizes TBL1. To ensure activation of Wnt signaling, the cells are pre-treated with 20 mM LiCl for 12 h a 37° C. The bound complex is then exposed to peptides from the library either as single peptide or in a combination of 2 or 3 peptides to ensure coverage of the potential binding site between TBL1 and β-catenin. After washing away unbound proteins, the plates are incubated with β-catenin antibodies labeled with Alexa Fluor 488 dye, and the level of β-catenin associated to TBL1 is quantified by a plate reader that detects the 488 fluorescence probe. As a font of TBL1/β-catenin complex we used colon cancer cell lines HCT15 and SW480. All the experiments are conducted in triplicated to ensure statistical significance, and to reduce variability we perform the assays by using the EpiMotion liquid handler. We designed a program that controls the peptide seeding into the ELISA plate wells: 1, 2 or 3 peptides per well, with overlap of one peptides in each well.

[1] = system: β-catenin-mediated transcriptional activation (TCF/LEF); assay: TOPFlash TCF/LEF reporter assay, reporter cells transfected with peptides; format: cell-based
Method: FIGS. 15A and 15B depict the results of a TOPFlash TCF/LEF reporter assay monitoring Wnt/β-catenin signaling pathway activity in cells expressing BC2059 (i.e., positive control) and Peptides 1-5.
A TOPFlash TCF/LEF reporter assay was performed with Peptides 1-5 as described in Veeman M T, et al. (2003) Curr Biol. 13(8):680-5. This is a luciferase reporter assay of (3-catenin-mediated transcriptional activation. Tegatrabetan (BC2059) was used as a positive control in the TOPFlash TCF/LEF reporter assay. Briefly, TCF/LEF reporter cells were transfected with the nucleofection kit. After 48 hours, the ONE-STEP™ luciferase assay was performed.

[2] = target: T2, TBL1 complex (β-catenin displacement) (Homo sapiens, UniProt O60907); assay: Homologous competitive ELISA with increasing logarithmic peptide concentrations; format: binding; conditions: increasing logarithmic concentrations of each peptide, FIG. 11
T2 sequence (O60907 1-577): T1 sequence (O60907 1-577)

β-catenin bound to TBL1 = target: T3, β-catenin bound to TBL1 (Homo sapiens, UniProt O60907); assay: Pull-down assay with TBL1 in SW480 cells transfected with peptides, Western blot; format: cell-based; conditions: FIG. 14
T3 construct: endogenous in cells; host or cells: SW480 colorectal cancer cells (only the peptides and the GFP control were transfected)
T3 sequence (O60907 1-577): T1 sequence (O60907 1-577)
Excerpt: FIG. 13 depicts a pull-down assay with TBL1 in the SW480 colorectal cancer (CRC) cell line transfected with the selected peptides.
Tegatrabetan (BC2059) is an antagonist of β-Catenin and was used as a positive control in the pull-down experiments. […] Green fluorescent protein (GFP) was also transfected into the SW480 cells as a negative control.

[3] = system: transcription activity downstream TCF/LEF; assay: TOPFlash assay in HEK293 TCF/LEF luciferase cells stimulated with LiCl and Wnt3a, peptide treatment; format: cell-based; conditions: peptide at 5 μM for 6 hours, FIG. 17
Method: FIG. 17 presents a TOPFlash assay to determine transcription activity downstream TCF/LEF: HEK293 cells containing a luciferase downstream TCF/LEF were LiCl was administered 16 hours prior to treatment to stimulate the Wnt pathway. Then the cells were treated with recombinant Wnt3a to stimulate transcription and peptide at 5 μM or BC-2059 at 0.5 μM for 6 hours before luciferase expression was quantified with the One-Step Luciferase assay system.
FIG. 22 presents TOPFlash assay to determine transcription activity downstream TCF/LEF: HEK293 cells containing a luciferase downstream TCF/LEF were with LiCl 16 hours prior to treatment to stimulate the Wnt pathway. Then they were treated with recombinant Wnt3a to stimulate transcription and peptide 16 (short) and 2 (long) at 5 μM or BC-2059 at 0.5 μM for 6 hours before luciferase expression was quantified with the One-Step Luciferase assay system.
FIG. 23 presents TOPFlash assay results to determine transcription activity downstream TCF/LEF dependency to peptides: HEK293 cells containing a luciferase downstream TCF/LEF were with LiCl 16 hours prior to treatment to stimulate the Wnt pathway. Then they were treated with recombinant Wnt3a to stimulate transcription and peptide 16 (short) and 2 (long) at different concentrations (300 μM-0.01 μM) for 6 hours before luciferase expression was quantified with the One-Step Luciferase assay system. […]

[4] = system: transcription downstream TCF/LEF; assay: Washout TOPFlash assay; format: cell-based; conditions: FIG. 18
Method: FIG. 18 presents wash out TOPFlash at 8, 12,18, and 24 hour time points: to investigate the effects of peptide 3 over time with a washout TOPFlash assay. To do this we followed the same procedure previously stated but performed washouts at 8, 12, 18, and 24 hour time points. This experiment was completed in duplicate.
FIG. 18 presents wash out TOPFlash at 8, 12,18, and 24 hour time points: to investigate the effects of peptide 3 over time with a washout TOPFlash assay. To do this we followed the same procedure previously stated but performed washouts at 8, 12, 18, and 24 hour time points.
This experiment was completed in duplicate.

H358 (lung cancer) = assay: Cell viability by CellTiter Glo; format: cell-based; conditions: 300 μM-0.01 μM for 72 hours, FIG. 24
HCT15 (colon cancer) = assay: Cell viability by CellTiter Glo; format: cell-based; conditions: 300 μM-0.01 μM for 72 hours, FIG. 24
HCT116 (colon cancer) = assay: Cell viability by CellTiter Glo; format: cell-based; conditions: 300 μM-0.01 μM for 72 hours, FIG. 24
SW480 (colon cancer) = assay: Cell viability by CellTiter Glo; format: cell-based; conditions: 300 μM-0.01 μM for 72 hours, FIG. 24

disrupting the interaction between TBL1 and β-catenin (TBL1/β-catenin complex): showed efficacy
Sequence: AIVEAGGMQALGLHLTDPSQ [Pep19]

Sequence: HQLSKKEASRHAIMRSPQMVSAIVRTMONTNDVETARCTAGTLH (HQLSKKEASRHAIMRSPQMVSAIVRTMQNTNDVETARCTAGTLH) [Peptide 1, longer peptide, from b112 on]
β-catenin-mediated transcriptional activation (luciferase) ([1]; initial evaluation of all five peptides, 48 hours after transfection, FIG. 15A): significant decrease
β-catenin-mediated transcriptional activation (luciferase) ([1]; second experiment evaluating only Peptide 1, FIG. 15B): confirmed the earlier result

disrupting the interaction between TBL1 and β-catenin (TBL1/β-catenin complex): showed efficacy
Sequence: LKVLSVCSSNKPAIVEAGGM [Pep18]

disrupting the interaction between TBL1 and β-catenin (TBL1/β-catenin complex): showed efficacy
amount of β-catenin bound to TBL1 (β-catenin bound to TBL1): most pronounced effects
Sequence: LKVLSVCSSNKPAIVEAGGMQALGLHLTDPSQRLVQNCLWTLRN [Peptide 4]
displacement of β-catenin from the TBL1 complex [2]: able to displace β-catenin from the TBL1 complex in a dose dependent manner

luciferase produced after washout ([4]; peptide washed out after 8 and 12 hours, compared to the non washout control): increase in luciferase produced
Sequence: NQESKLIILASGGPQALVNIMRTYTYEKLLWTTSRVLKVLSVCS [Peptide 3, longer peptide; in b127-b129 apparently used as CPP peptide]
levels of luciferase after treatment [3]: decreased levels of luciferase
blocking transcription downstream TCF/LEF ([4]; conclusion of washout TOPFlash): specific and effective

Sequence: RTMQNTNDVETARCTAGTLH [Pep6]
cytotoxic effect (cell viability) (H358 (lung cancer)): cytotoxic effect
cytotoxic effect (cell viability) (HCT15 (colon cancer)): cytotoxic effect
cytotoxic effect (cell viability) (HCT116 (colon cancer)): cytotoxic effect
cytotoxic effect (cell viability) (SW480 (colon cancer)): cytotoxic effect

disrupting the interaction between TBL1 and β-catenin (TBL1/β-catenin complex): showed efficacy
Sequence: TYEKLLWTTSRVLKVLSVCS [Pep17]

Sequence: VDSVLFYAITTLHNLLLHQEGAKMAVRLAGGLQKMVALLNKTNV [Peptide 2]
cytotoxic effect (cell viability) (H358 (lung cancer)): cytotoxic effect
cytotoxic effect (cell viability) (HCT15 (colon cancer)): cytotoxic effect
cytotoxic effect (cell viability) (HCT116 (colon cancer)): cytotoxic effect
cytotoxic effect (cell viability) (SW480 (colon cancer)): cytotoxic effect

disrupting the interaction between TBL1 and β-catenin (TBL1/β-catenin complex): showed efficacy
amount of β-catenin bound to TBL1 (β-catenin bound to TBL1): most pronounced effects
Sequence: VVTCAAGILSNLTCNNYKNKMMVCQVGGIEALVRTVLRAGDRED [Peptide 5, longer peptide; in b127 apparently used as CPP peptide]
displacement of β-catenin from the TBL1 complex [2]: able to displace β-catenin from the TBL1 complex in a dose dependent manner
levels of luciferase after treatment [3]: decreased levels of luciferase

— patent US20250222062A1, “PEPTIDE INHIBITORS TARGETING THE TBL1-BETA-CATENIN COMPLEX” (THE TRANSLATIONAL GENOMICS RESEARCH INSTITUTE, priority 2022, published 2025)
